Measurements taken from patent US20110262425A1, “THERAPEUTIC AGENT FOR MLL LEUKEMIA AND MOZ LEUKEMIA OF WHICH MOLECULAR TARGET IS M-CSF RECEPTOR, AND USE THEREOF” (NATIONAL CANCER CENTER, priority 2007, published 2011).
“Also recorded” adds a separate entry of the source. Where a name gives a salt, the structure may show the parent alone.

Experiments:
Type in all cases: in vivo
M-CSFR-expressing cells = assay: Ablation of M-CSFR-expressing cells by AP20187 in MOZ-TIF2-induced AML mice (FKBP-Fas suicide gene transgenic BM cells, secondary transplantation); settings: then 1 mg/kg every three days
Procedure: FIG. 1 depicts the result of M-CSFR expression in bone marrow cells of MOZ leukemogenesis mice. (A) BM cells from MOZ-TIF2-induced AML mice were analyzed by FACS for expression of GFP and M-CSFR. (B) M-CSFR^high cells and M-CSFR^low/- cells were sorted by flow cytometer. MOZ-TIF2 expression in these cells was investigated by immunoblot analysis using an anti-MOZ antibody. (C, D) Indicated numbers of M-CSFR^high cells (C) and M-CSFR^low/- cells (D) were transplanted into mice irradiated beforehand with a lethal dose of radiation and survival from leukemia onset was investigated. (E) Structure of genes for the M-CSFR promoter, EGFP, the NGFR-FKBP-Fas suicide construct, and activation mechanism of NGFR-FKBP-Fas. In transgenic (Tg) mice, conditional ablation of cells highly expressing M-CSFR can be induced by exposure to an AP20187 dimerizer. (F-I) AML mice were induced by transplantation of BM cells from Tg mice infected with MOZ-TIF2, and 10^5 BM cells from AML Tg mice were secondary transplanted into wild-type mice lethally-irradiated beforehand. The secondary-transplanted mice were exposed to AP20187 seven days after transplantation. Expression of GFP and M-CSFR in BM cells (F, G) and the size of spleens (H) of normal Tg mice (F), and of untreated and AP20187-treated secondary-transplanted mice (G) were analyzed four weeks after transplantation. Leukemia-free survival rate of the untreated and AP20187-treated secondary-transplanted mice were investigated (I).
In the transgenic mice, expression levels of endogenous M-CSFR were proportional to those of EGFP and FKBP-Fas (FIG. 1F), and conditional ablation of M-CSFR-expressing cells can be induced by injection of the AP20187 dimerizer (Burnett, S. H. et al., J Leukoc Biol (2004) 75: 612-23). c-KIT^+ BM cells of the transgenic mice were infected with the MOZ-TIF2 retrovirus, and transplanted into lethally-irradiated wild-type mice. These mice developed AML about two months after transplantation, and their BM cells (10^5 cells/mouse) were transplanted into secondary recipient mice. […]

MLL-AF10-induced AML = assay: Effect of Imatinib on MLL-AF10-induced AML in mice; settings: Imatinib 100 mg/kg orally twice a day
Text: (§1) FIG. 10 (A-D) BM cells (10^5 cells) from AML mice with MOZ-TIF2 (A), MLL-AF10 (B), or N-MYC (C) were transplanted into irradiated mice. […] (A-C) show the results of analyzing leukemia-free survival of the mice. (D) depicts the photograph showing the result of analyzing spleen sizes of the MOZ-TIF2-introduced mice three weeks after transplantation.

MOZ-TIF2-induced AML = assay: Effect of Imatinib on MOZ-TIF2-induced AML in mice; settings: Imatinib 100 mg/kg orally twice a day
Text: as §1

N-MYC-induced AML = assay: Effect of Imatinib on N-MYC-induced AML in mice; settings: Imatinib 100 mg/kg orally twice a day
Text: as §1

Row | SMILES | development of AML (leukemia-free survival) (M-CSFR-expressing cells; AP20187 10 mg/kg i.v. daily for 5 days, 5-6 weeks after transplantation) | M-CSFR^high cells in BM (M-CSFR-expressing cells; AP20187 10 mg/kg intravenously daily for 5 days, from seven days after transplantation, three weeks after transplantation) | splenomegaly (M-CSFR-expressing cells; AP20187 10 mg/kg intravenously daily for 5 days, three weeks after transplantation) | onset of AML (leukemia-free survival) (MLL-AF10-induced AML) | MOZ-TIF2-induced splenomegaly (MOZ-TIF2-induced AML; three weeks after transplantation) | onset of AML (leukemia-free survival) (MOZ-TIF2-induced AML; MOZ-TIF2) | progress of AML (leukemia-free survival) (N-MYC-induced AML)
1 | CC[C@H](C(=O)N1CCCC[C@H]1C(=O)O[C@H](CCc1ccc(OC)c(OC)c1)c1cccc(OCC(=O)NCC(CNC(=O)COc2cccc([C@@H](CCc3ccc(OC)c(OC)c3)OC(=O)[C@@H]3CCCCN3C(=O)[C@@H](CC)c3cc(OC)c(OC)c(OC)c3)c2)CN(C)C)c1)c1cc(OC)c(OC)c(OC)c1 [AP20187] | suppressed; also recorded: none of the AP20187-treated mice, developed AML | neither M-CSFR^high cells nor splenomegaly were detected | suppressed; also recorded: neither M-CSFR^high cells nor splenomegaly were detected | – | – | – | –
2 | Cc1ccc(NC(=O)c2ccc(CN3CCN(C)CC3)cc2)cc1Nc1nccc(-c2cccnc2)n1 [Imatinib, Imatinib mesylate] | – | – | – | slowed onsets of AML; also recorded: delaying the leukemia onset | inhibited | slowed onsets of AML; also recorded: delaying the leukemia onset | did not affect the progress
